Reference: patent US7485637B2, “Benzoyl-tetrahydropiperidine derivatives” (Hoffmann-La Roche Inc., priority 2005, dated 2009)

Each molecule was assayed against T1, mGlyT-1b (Mus musculus, UniProt P28571) (assay: Glycine Uptake Inhibition Assay (mGlyT-1b)). Conditions: [3H]-glycine uptake, Flp-in-CHO cells transfected with mGlyT-1b cDNA, 20 min preincubation at 22° C.; read-out: IC50 (μM) at GlyT-1.
T1 construct: host or cells: Flp-in-CHO
T1 sequence (P28571 1-651 isoform P28571-2): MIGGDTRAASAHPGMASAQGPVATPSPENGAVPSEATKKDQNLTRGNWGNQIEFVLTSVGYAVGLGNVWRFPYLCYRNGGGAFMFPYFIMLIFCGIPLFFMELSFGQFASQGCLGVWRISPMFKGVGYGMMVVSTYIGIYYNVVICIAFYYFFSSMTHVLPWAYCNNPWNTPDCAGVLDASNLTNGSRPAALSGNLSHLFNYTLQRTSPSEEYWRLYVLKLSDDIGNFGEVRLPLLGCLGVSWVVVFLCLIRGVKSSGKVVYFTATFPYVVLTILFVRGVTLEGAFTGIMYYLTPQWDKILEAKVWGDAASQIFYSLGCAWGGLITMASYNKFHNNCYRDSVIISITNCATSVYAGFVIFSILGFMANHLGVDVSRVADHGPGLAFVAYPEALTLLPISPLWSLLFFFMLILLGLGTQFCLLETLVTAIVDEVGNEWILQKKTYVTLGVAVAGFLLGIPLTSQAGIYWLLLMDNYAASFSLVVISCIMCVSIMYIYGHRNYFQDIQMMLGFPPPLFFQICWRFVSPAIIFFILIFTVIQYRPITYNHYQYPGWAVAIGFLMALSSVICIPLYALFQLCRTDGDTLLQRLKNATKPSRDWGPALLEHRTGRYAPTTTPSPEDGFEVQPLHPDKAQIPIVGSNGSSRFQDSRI
Type: cell-based
Procedure: DMEM complete medium: Nutrient mixture F-12 (Gibco Life-technologies), fetal bovine serum (FBS) 5%, (Gibco life technologies), Penicillin/Streptomycin 1% (Gibco life technologies), Hygromycin 0.6 mg/ml (Gibco life technologies), Glutamine 1 mM Gibco life technologies)
Uptake buffer (UB): 150 mM NaCl, 10 mM Hepes-Tris, pH 7.4, 1 mM CaCl2, 2.5 mM KCl, 2.5 mM MgSO4, 10 mM (+) D-glucose.
Flp-in™-CHO (Invitrogen Cat n° R758-07) cells stably transfected with mGlyT1b cDNA.
Glycine Uptake Inhibition Assay (mGlyT-1b)
On day 1 mammalian cells, (Flp-in™-CHO), transfected with mGlyT-1b cDNA, were plated at the density of 40,000 cells/well in complete F-12 medium, without hygromycin in 96-well culture plates. On day 2, the medium was aspirated and the cells were washed twice with uptake buffer (UB). The cells were then incubated for 20 min at 22° C. with either (i) no potential competitor, (ii) 10 mM non-radioactive glycine, (iii) a concentration of a potential inhibitor. A range of concentrations of the potential inhibitor was used to generate data for calculating the concentration of inhibitor resulting in 50% of the effect (e.g. IC50, the concentration of the competitor inhibiting glycine uptake of 50%). A solution was then immediately added containing [^3H]-glycine 60 nM (11-16 Ci/mmol) and 25 μM non-radioactive glycine. The plates were incubated with gentle shaking and the reaction was stopped by aspiration of the mixture and washing (three times) with ice-cold UB. The cells were lysed with scintillation liquid, shaken 3 hours and the radioactivity in the cells was counted using a scintillation counter.

IC50	Compound
0.232 µM	CS(=O)(=O)c1ccc(N2CCOCC2)c(C(=O)N2CC=C(c3ccc(C(F)(F)F)cc3)CC2)c1 [Example 5, (5-Methanesulfonyl-2-morpholin-4-yl-phenyl)-[4-(4-trifluoromethyl-phenyl)-3,6 dihydro-2H-pyridin-1-yl]-methanone]
0.251 µM	CS(=O)(=O)c1ccc(C2=CCN(C(=O)c3cc([N+](=O)[O-])ccc3N3CCOCC3)CC2)cc1 [Example 6, [4-(4-Methanesulfonyl-phenyl)-3,6-dihydro-2H-pyridin-1-yl]-(2-morpholin-4-yl-5-nitro-phenyl)-methanone]
0.122 µM	CS(=O)(=O)c1ccc(OCC(F)(F)F)c(C(=O)N2CC=C(c3ccc(C(F)(F)F)cc3)CC2)c1 [Example 4, [5-Methanesulfonyl-2-(2,2,2-trifluoro-ethoxy)-phenyl]-[4-(4-trifluoromethyl-phenyl)3,6-dihydro-2H-pyridin-1-yl]-methanone]
0.28 µM	CC(C)Oc1ccc(C#N)cc1C(=O)N1CC=C(c2ccc(Cl)cc2)CC1 [Example 9, 3-[4-(4-Chloro-phenyl)-3,6-dihydro-2H-pyridine-1-carbonyl]-4-isopropoxy-benzonitrile]
0.87 µM	CC(C)Oc1ccc(S(C)(=O)=O)cc1C(=O)N1CC=C(c2ccc(S(C)(=O)=O)cc2)CC1 [Example 7, (2-Isopropoxy-5-methanesulfonyl-phenyl)-[4-(4-methanesulfonyl-phenyl)-3,6-dihydro-2H-pyridin-1-yl]-methanone]
0.27 µM	N#Cc1ccc(C2=CCN(C(=O)c3cc([N+](=O)[O-])ccc3N3CCOCC3)CC2)cc1 [Example 3, 4-[1-(2-Morpholin-4-yl-5-nitro-benzoyl)-1,2,3,6-tetrahydro-pyridin-4-yl]benzonitrile]
0.201 µM	CS(=O)(=O)c1ccc(C2=CCN(C(=O)c3cc(S(C)(=O)=O)ccc3OC3CCCC3)CC2)cc1 [Example 8, (2-Cyclopentyloxy-5-methanesulfonyl-phenyl)-[4-(4-methanesulfonyl-phenyl)-3,6-dihydro-2H-pyridin-1-yl]-methanone]
0.432 µM	O=C(c1cc([N+](=O)[O-])ccc1N1CCOCC1)N1CC=C(c2ccc(Cl)cc2)CC1 [Example 2, [4-(4-Chloro-phenyl)-3,6-dihydro-2H-pyridin-1-yl]-(2-morpholin-4-yl-5-nitrophenyl) methanone]
0.803 µM	O=C(c1cc([N+](=O)[O-])ccc1N1CCOCC1)N1CC=C(c2ccccc2)CC1 [Example 1, (2-Morpholin-4-yl-5-nitro-phenyl)-(4-phenyl-3,6-dihydro-2H-pyridin-1-yl)-methanone]
0.056 µM	CS(=O)(=O)c1ccc(OCC2CC2)c(C(=O)N2CC=C(c3ccc(Cl)cc3)CC2)c1 [Example 10, [4-(4-Chloro-phenyl)-3,6-dihydro-2H-pyridin-1-yl]-(2-cyclopropylmethoxy-5-methanesulfonyl-phenyl)-methanone]
